From patent US9557338B2 (SIGNAL PHARMACEUTICALS, LLC, priority 2012, dated 2017)
Like-named read-outs stand apart in the source and are kept apart here.

What was measured:
Type in all cases: cell-based
Phospho-p70S6K (T389) = experiment: MSD assay, phospho-p70S6K (T389) in cell lysates; conditions: PC3 cell line; read-out: MSD p70S6K
Procedure: Determination of Phospho-p70S6K (T389) in Cell Lysates.
MSD® biomarker detection assays provide a rapid and convenient method for measuring the total and phosphorylated levels of protein targets within a single small-volume sample. In the assay, an antibody for a specific protein target is coated on one electrode (or spot) per well. The samples (cell lysates) are added to the well with a solution containing the detection antibody labeled with an electrochemiluminescent (ECL) compound, MSD SULFOTAG™ label, over the course of one or more incubation periods. The total protein present in the sample binds to the capture antibodies immobilized on the working electrode surface; recruitment of the labeled detection antibody by bound phospho-p70S6K completes the sandwich. MSD Read Buffer that provides the appropriate chemical environment for ECL is added and the plate is read using an MSD SECTOR™ Imager. Inside the SECTOR Imager, a voltage is applied to the plate electrodes which cause the labels bound to the electrode surface to emit light. The instrument measures intensity of the emitted light to afford a quantitative measure of the amount of phosphorylated protein present in the sample.
Cells were plated in 96-well flat bottom plates at the required density determined for each cell line and the cells were allowed to equilibrate at 37° C., 5% CO2 overnight. The following day, the cells were treated with Compound 1 over a range of concentrations for one hour in 5% CO2 at 37° C. After the incubation period, the culture medium was removed carefully with an aspirator. The plate was placed on ice and 50 μL of 1× Tris Lysis Buffer were added to each well. The plate was placed on a shaker at 4° C. for one hour to lyse the cells. At that point, the plate was either frozen at −80° C. for later analysis or immediately assayed for phosphoproteins as described below. To monitor interassay variability, Compound 1 was compared among all plates as a reference standard.
The assay plate was incubated with 150 μL of MSD Blocking Buffer for one hour with shaking at room temperature. The plates were washed 3 times with Tris Wash Buffer. Then 35 μL of cell lysate was added to the wells and incubated for one hour with shaking at room temperature. The solution was removed from the wells and the plate was washed 3 times with wash buffer. Twenty-five microliters of the appropriate antibody solution was then incubated for one hour with shaking at room temperature. The solution was removed from the wells and the plate was washed 3 times with wash buffer. Then 150 μL of 1×MSD Read Buffer T was added to each well. The plate was read on the SECTOR Imager plate reader.

GSK-3β = experiment: MSD assay, GSK-3β phosphorylation in cell lysates; conditions: PC3 cell line; read-out: MSD GSK-3β
Phospho-GSK3β(S9) = experiment: Luminex multiplex assay, Phospho-GSK3β(S9)
Excerpt: (§1) Determination of Phospho-GSK3β(S9), Phospho-PRAS40(T246) and Phospho-4E-BP1(T46) and the Effect of Compound 1 or Rapamycin.
(§2) The multiplex Luminex assay format differs from conventional enzyme-linked immunosorbent assay (ELISA) in that the multiplex capture antibody is attached to a polystyrene bead whereas the ELISA capture antibody is attached to the microplate well. The use of the suspension bead-based technology enables the multiplexing capabilities of the Luminex assays. The xMAP® technology uses 5.6 micron polystyrene microspheres, which are internally dyed with red and infrared fluorophores of differing intensities. Each bead is given a unique number, or bead region, allowing differentiation of one bead from another. Beads covalently bound to different specific antibodies can be mixed in the same assay, utilizing a 96-well microplate format. At the completion of the sandwich immunoassay, beads can be read, using the Luminex 100™ or Luminex 200 detection system, in single-file by dual lasers for classification and quantification of each analyte. The Akt-Pathway Phospho 5-plex kit used was custom made and includes the ability to simultaneously measure p-GSK3β (S9), p-PRAS40(T246), and p-4E-BP1(T46).
(§3) Cells were plated at the required density. The cells were treated with either Compound 1 or rapamycin over a range of concentrations for 1 hour in 5% CO2 at 37° C. Compound 1 and rapamycin were used at the same concentrations as for the proliferation assay. As for the cell proliferation assay, a reference standard was included in the assay for PC3 cells and the coefficient of variation for assay of p-GSK3β(S9) was 37.8% (n=30), p-PRAS40(T246) was 27.8% (n=30) and for p4E-BP1(T46) was 13.5% (n=4). For three cell lines (HCT-116, MDA-MB-231 and HT29) in the assay for phosphorylation of GSK3β, PRAS40 and 4E-BP1, IGF-I stimulation (500 ng/mL, recombinant human IGF-I) for the last 10 min of incubation was used. The media was aspirated from the wells and the plate was placed on ice. Then 35 μL of Lysis Buffer was added to each well and incubated on ice for at least 30 minutes. During the incubation, the standard curve for each phosphoprotein was prepared. The standards provided were reconstituted and serial dilutions were prepared according to the manufacturer's instructions. At the end of the cell lysis step, […] of the lysate was transferred to a V-bottom plate and spun at 4° C. at 2000 rpm for 5 minutes. Both the 1× Luminex bead and 1× detector antibody solutions were prepared during this time. The 1× bead solution was vortexed and 25 μL was added into each well of a black round bottom plate. Then 50 μL of the 1× detector antibody was added to each well. Fifty microliters (50 μL) of the prepared standards were added to the designated wells. Then 25 μL of the assay diluent was added to each well designated for the compound-treated cell lysates. At the end of the spin, 25 μL of cell lysate was added to the corresponding wells of the black assay plate. The assay plate was covered with the white plate lid and incubated for 3 hours at room temperature on an orbital shaker.
(§4) Approximately 10-15 minutes prior to the end of the first incubation, the secondary antibody solution was prepared according to the vendor's protocol. Goat anti-rabbit R-phycoerythrin red fluorescent protein (RPE) supplied as a 10× concentrate was diluted to generate a 1× goat anti-rabbit RPE stock. The 96-well filter plate was pre-wet with 200 μL of 1× Working wash solution. At the end of the 3 hour incubation, a multichannel pipette was used to transfer the entire contents from each assay well into the wells of the filter plate. The liquid from the wells was removed by aspiration with the vacuum manifold. Then 200 μL of 1× Working wash solution was added into each well. The wash solution was aspirated using the vacuum manifold after 15-30 seconds. This wash step was repeated one time. The bottom of the plate was blotted on clean paper towels to remove residual liquid. […]

p70S6K = experiment: Luminex multiplex assay, p70S6K phosphorylation in cell lysates
Excerpt: as §2, §3, §4

Phospho-PRAS40(T246) = experiment: Luminex multiplex assay, Phospho-PRAS40(T246)
Excerpt: as §1, §2, §3, §4

[1] = PC3 cell line, read-out: Luminex GSK-3β
[2] = PC3 cell line, read-out: Luminex p70S6K
[3] = PC3 cell line, read-out: Luminex PRAS40
[4] = Homo sapiens, U-87 MG, U87MG cell line, read-out: Luminex GSK-3β
[5] = Homo sapiens, HCT-116, HCT116 cell line, IGF, read-out: Luminex p70S6K (IGF)
[6] = Homo sapiens, U-87 MG, U87MG cell line, read-out: Luminex p70S6K
[7] = Homo sapiens, HCT-116, HCT116 cell line, IGF, read-out: Luminex PRAS40 (IGF)
[8] = Homo sapiens, U-87 MG, U87MG cell line, read-out: Luminex PRAS40

Row | IC50 (Phospho-GSK3β(S9); [1]) | IC50 (p70S6K; [2]) | IC50 (Phospho-PRAS40(T246); [3]) | SMILES | other results
1 | > 1500 nM | > 1500 nM | > 1500 nM | O=C1CNc2ncc(-c3cnc4nc[nH]c4c3)nc2N1CCC1CCOCC1 [C-67] | –
2 | > 1500 nM | > 1500 nM | > 1500 nM | NC(=O)c1cccc(-c2cnc3c(n2)N(CCC2CCOCC2)CC(=O)N3)c1 [C-84] | –
3 | 3840 nM | 468 nM | 1990 nM | O=C1CNc2ncc(-c3ccc4cc[nH]c4c3)nc2N1CCC1CCOCC1 [C-49] | –
4 | 568 nM | 33 nM | 349 nM | O=C1CNc2ncc(-c3ccc4[nH]ncc4c3)nc2N1CCC1CCOCC1 [C-62] | –
5 | > 1500 nM | 209 nM | > 1500 nM | O=C1CNc2ncc(-c3cn[nH]c3)nc2N1CCC1CCOCC1 [C-94] | –
6 | > 1500 nM | > 1500 nM | > 1500 nM | O=C1CNc2ncc(-c3cncnc3)nc2N1CCC1CCOCC1 [C-106] | –
7 | 964 nM | 156 nM | 1750 nM | CC(C)(O)c1ccc(-c2cnc3c(n2)N(CC2CCOCC2)CC(=O)N3)cn1 [C-5] | –

The next lines start with the molecule.

Row | SMILES | IC50 (Phospho-GSK3β(S9); [1]) | IC50 (p70S6K; [2]) | IC50 (Phospho-PRAS40(T246); [3]) | other results
8 | COCCN1CC(=O)Nc2ncc(-c3ccc(-c4nc[nH]n4)nc3)nc21 [C-135] | – | – | – | IC50 (Phospho-p70S6K (T389)): > 1500 nM; IC50 (GSK-3β): > 1500 nM
9 | O=C1CN(CC2CCC(O)CC2)c2nc(-c3ccc(-c4nc[nH]n4)nc3)cnc2N1 (centres unmarked) [C-149] | – | – | – | IC50 (Phospho-p70S6K (T389)): 173 nM; IC50 (GSK-3β): > 5000 nM
10 | O=C1CNc2ncc(-c3ccnc4[nH]ccc34)nc2N1CCC1CCOCC1 [C-161] | – | – | – | IC50 (Phospho-p70S6K (T389)): 385 nM; IC50 (GSK-3β): 2790 nM
11 | COC1CCC(CN2CC(=O)Nc3ncc(-c4ccc(-c5nc[nH]n5)nc4)nc32)CC1 (centres unmarked) [C-158] | – | – | – | IC50 (Phospho-p70S6K (T389)): 36 nM
12 | Cc1cc(-c2nc[nH]n2)c(F)cc1-c1cnc2c(n1)N(CC1CCC(O)CC1)CC(=O)N2 (centres unmarked) [C-157] | – | – | – | IC50 (Phospho-p70S6K (T389)): 37 nM
13 | CO[C@H]1CC[C@@H](CN2C(=O)CNc3ncc(-c4ccc(-c5nc[nH]n5)nc4)nc32)CC1 [C-165] | – | – | – | IC50 (GSK-3β): 3 nM
14 | O=C1CNc2ncc(-c3ccc(-c4nc[nH]n4)nc3)nc2N1CC1CCC(O)CC1 (centres unmarked) [C-141] | – | – | – | IC50 (Phospho-p70S6K (T389)): 42 nM
15 | COC1CCC(N2CC(=O)Nc3ncc(-c4ccc(C(C)(C)O)nc4)nc32)C1 (centres unmarked) [C-29] | > 5000 nM | 235 nM | 2130 nM | –
16 | COC1CCC(CN2C(=O)CNc3ncc(-c4cnc(C(N)=O)cc4C)nc32)CC1 (centres unmarked) [C-89] | 860 nM | 102 nM | 1010 nM | –
17 | Cc1cc(-c2nc[nH]n2)ncc1-c1cnc2c(n1)N(C(C)C)C(=O)CN2 [C-121] | – | – | – | IC50 (GSK-3β): 15 nM
18 | Cc1nc(-c2nnc[nH]2)ccc1-c1cnc2c(n1)N(C)C(=O)CN2 [C-99] | 348 nM | 11 nM | 274 nM | –
19 | COC1CCC(N2CC(=O)Nc3ncc(-c4ccc(C(C)(C)O)nc4)nc32)C1 (centres unmarked) [C-23] | 1770 nM | 207 nM | 1440 nM | –
20 | Cc1c(-c2cnc3c(n2)N(CCC2CCOCC2)CC(=O)N3)ccc(-c2nnc[nH]2)c1F [C-34] | > 5000 nM | 21 nM | 1520 nM | –
21 | COC1CCC(CN2CC(=O)Nc3ncc(-c4ccc(C(C)(C)O)nc4)nc32)C1 (centres unmarked) [C-21] | 1680 nM | 105 nM | 795 nM | –
22 | CC(C)(O)c1ccc(-c2cnc3c(n2)N(CC2CC2)CC(=O)N3)cn1 [C-17] | > 5000 nM | 549 nM | 2900 nM | –
23 | CO[C@@H]1CC[C@@H](N2C(=O)CNc3ncc(-c4ccc(-c5nnc[nH]5)nc4C)nc32)C1 [C-58] | 507 nM | 48 nM | 209 nM | –
24 | COC1CCC(N2CC(=O)Nc3ncc(-c4ccc(-c5nnc[nH]5)nc4C)nc32)C1 (centres unmarked) [C-53] | 1140 nM | 232 nM | 1160 nM | –
25 | CC(C)(O)c1ccc(-c2cnc3c(n2)N(CC2CCOCC2)CC(=O)N3)cn1 [A-1, 6-(6-(2-hydroxypropan-2-yl)pyridin-3-yl)-4-((tetrahydro-2H-pyran-4-yl)methyl)-3,4-dihydropyrazino[2,3-b]pyrazin-2(1H)-one] | – | – | – | IC50 (Phospho-GSK3β(S9); Homo sapiens, HCT-116, HCT116 cell line, IGF, read-out: Luminex GSK-3β (IGF)): 1740 nM; IC50 (Phospho-GSK3β(S9); [4]): 1220 nM; IC50 (p70S6K; [5]): 2120 nM; IC50 (p70S6K; [6]): 526 nM; IC50 (Phospho-PRAS40(T246); [7]): 2610 nM; IC50 (Phospho-PRAS40(T246); [8]): 1660 nM
26 | O=c1[nH]c2ncc(-c3ccc(C4(O)COC4)cn3)nc2n1CCC1CCOCC1 [C-77] | > 1500 nM | > 1500 nM | > 1500 nM | –
27 | COC1CCC(CN2CC(=O)Nc3ncc(-c4ccc(-c5ncn[nH]5)nc4)nc32)CC1 (centres unmarked) [C-156] | – | – | – | IC50 (Phospho-p70S6K (T389)): 10 nM
28 | C[C@@H](O)c1ccc(-c2cnc3c(n2)N(CCC2CCOCC2)C(=O)CN3)cn1 [A-8, (R)-7-(6-(1-hydroxyethyl)pyridin-3-yl)-1-(2-(tetrahydro-2H-pyran-4-yl)ethyl)-3,4-dihydropyrazino[2,3-b]pyrazin-2(1H)-one] | – | – | – | IC50 (Phospho-GSK3β(S9); [4]): 402 nM; IC50 (p70S6K; [5]): 91 nM; IC50 (p70S6K; [6]): 35.5 nM; IC50 (Phospho-PRAS40(T246); [7]): 160 nM; IC50 (Phospho-PRAS40(T246); [8]): 255 nM
29 | CC(C)(O)c1ccc(-c2cnc3[nH]c(=O)n(CC4CCCCC4)c3n2)cc1 [C-1] | > 1500 nM | 557 nM | > 1500 nM | –
30 | COC1CCC(N2CC(=O)Nc3ncc(-c4ccc(-c5nnc[nH]5)nc4C)nc32)C1 (centres unmarked) [C-51] | 859 nM | 46 nM | 816 nM | –
31 | CNc1nc2c(C)cc(-c3cnc4c(n3)N(CCOC)C(=O)CN4)cc2[nH]1 [C-39] | > 5000 nM | 283 nM | 1400 nM | –
